This is an account of results in patent US20140274995A1, “PARENTERAL CEFTOLOZANE ANTIBIOTIC COMPOSITIONS” (Cubist Pharmaceuticals, Inc., priority 2013, published 2014).

Data set [1] in a line: Comparison between stabilizing reagents, lyophilized ceftolozane samples stored at 60° C. for 7 days, HPLC purity. The data set is classed as physicochemical. To be noted: without any stabilizing agent.
Data set [2] in a line: Residual rate of ceftolozane without stabilizing agent after 3 days at 70° C., HPLC. To be noted: 100 mg of ceftolozane, no stabilizing agent. The format is physicochemical.
Experimental: The purity of the ceftolozane in a composition comprising 100 mg ceftolozane was also evaluated with no stabilizing agent after 3 days at 70° C. by measuring the residual rate. The residual rate is measured by detecting the amount of ceftolozane in a sample before and after a stability test using HPLC, and determining the percentage of ceftolozane lost during the stability test.

SMILES strings stand for the structures.

Turning to `Cn1c(N)c(NC(=O)NCCN)c[n+]1CC1=C(C(=O)[O-])N2C(=O)[C@@H](NC(=O)/C(=N\OC(C)(C)C(=O)O)c3nsc(N)n3)[C@H]2SC1` [Ceftolozane, (6R,7R)-3-[(5-amino-4-{[(2-aminoethyl)carbamoyl]amino}-1-methyl-1H-pyrazol-2-ium-2-yl)methyl]-7-({(2Z)-2-(5-amino-1,2,4-thiadiazol-3-yl)-2-[(1-carboxy-1-methylethoxy)imino]acetyl}amino)-8-oxo-5-thia-1-azabicyclo[4.2.0]oct-2-ene-2-carboxylate], in data set [1], the “overall decrease in purity” value came to 5.88%. Further, the residual rate in data set [2] was found to be 51.2%.
